The subject of data set [1] is SK-N-BE(2) cells. Nature of the data set: Subcellular fractionation and LC-MS of CBD distribution. The following applies: 24 hrs. The format is cell-based, human. On the procedure: In a metabolomics survey of SK-N-BE(2) cells exposed to CBD, the present inventors were able to determine that CBD is concentrated in insoluble components […]. As a result, the inventors designed and executed a subcellular fractionation method to isolate nuclear membrane, plasma membrane, and ER membrane fractions.
Extraction of cholesterol, precursors, free fatty acids, cholesteryl esters, and phospho lipids were performed in the following manner. SK-N-BE(2) cells in 10 cm dishes were washed with 10 mL PBS twice and then cells were scraped and pelleted at 400 rcf for 2 minutes. […]
Analytes were resolved over an ACQUITY HSS T3 column (2.1×150 mm, 1.8 μm particle size (Waters, Mass., USA) using an aqueous phase (A) of 25% acetonitrile and 5 mM ammonium acetate and a mobile phase (B) of 90% isopropanol, 10% acetonitrile and 5 mM ammonium acetate. The column was equilibrated at 30% B, and upon injection of […] of extract, samples were eluted from the column using the solvent gradient: 0-9 min 30-100% B and 0.325 mL/min; hold at 100% B for 3 min at 0.3 mL/min, and then decrease to 30% over 0.5 min at 0.4 ml/min, followed by a re-equilibration hold at 30% B for 2.5 minutes at 0.4 ml/min. […] Samples were analyzed in randomized order with a technical mixture injected incrementally to qualify instrument performance. […]

Data set [2] deals with SK-N-BE(2) cells. Nature of the data set: RNAseq transcriptomics of CBD response. Particulars: 20 μM CBD. Format: cell-based, human. As for the experimental part:
In order to compare and contrast proteomic derived mechanistic components of the CBD response to that of transcriptomic components, the present inventors additionally performed RNAseq analysis of SK-N-BE(2) cells exposed to vehicle or 20 μM CBD at the time-points indicated in FIG. 1C. 5,643 differentially expressed genes were identified in the CBD response gene with a FDR<1%, which was further reduced to a list of 139 genes with an LFC>=1. […] While most of these annotations are supported by either the transcriptome or the proteome, dysregulation of cholesterol metabolism is supported by both. […] As a result of the agreement between proteomic and transcriptomic data, we focused our study thereafter on determining the role of cholesterol homeostasis in the CBD drug response.
Sequencing was performed on seven consecutive lanes. Median read counts per lane were ˜49,000 with a CV of ˜7%. Starting with 228 fastq files, each lane set was concatenated per condition. Using Trimmomtic-0.36, base pairs were trimmed if they dropped below a PHRED score of 15 within a sliding window of 4 bp. Remaining reads shorter than 35 base pairs were removed. Illumina adapter sequences were also clipped using Trimmomatic. […] Read alignment was accomplished using Tophat-2.0.13 and Cufflinks/Cuffdiff 2.2.1 was used for FPKM quantitation and differential expression analysis per time point.

As for `C=C(C)[C@@H]1CCC(C)=C[C@H]1c1c(O)cc(CCCCC)cc1O` [CBD, cannabidiol], the “CBD incorporated into ER and nuclear membranes” value in data set [1] is on record as “detectable amount”. The HMG-CR expression result in data set [2] is “transcriptional activation”.

The values are drawn from patent US20210244686A1, “Novel Systems And Methods For The Therapeutic Use of Cannabinoids or Cannabinoid Analogs to Increase The Lipid Order of Cholesterol Containing Cell Membranes” (The Regents of the University of Colorado a body corporate, priority 2018, published 2021).
